Reference: US20070207503A1, “DETECTION OF ALCOHOL-ESTERIFIED FATTY ACIDS” (priority 2006, published 2007)

Experiments:
[1] = tested on: antibodies against 14,15-DHET; experiment: 14,15-DHET solid phase competitive ELISA, specificity; type: binding, goat; details: 14,15-DHET ELISA, panel of eicosanoids
Procedure: (§1) High-binding microplates were coated with protein G-purified IgG suspended in 1 M carbonate, pH 9.01 (10 μg/well; 200 μL/well final volume) and then covered with parafilm. After overnight incubation at room temperature, the welts were gently washed five times with tris buffered saline (TBS), pH 7.5, containing 0.1% tween. Non-specific sites were blocked by the addition of 0.2 mL of 5% (w/v) nonfat dry milk in TBS. After 2 hours of incubation at room temperature, they were washed three times with TBS-tween.
(§2) Standards were serially diluted with TBS (100 μL). The diluted samples (100 μL) were added to the IgG-coated plate. Approximately 50 ng of the DHET HRP conjugates were diluted with HRP-dilution buffer (100 μL) and added to the well. Following incubation for 2 hours to permit competitive binding of the molecules to the antibody, unbound material was removed by thorough washing of the wells with TBS-tween, and 150 μL of a calorimetric substrate for HRP [3,3′,5,5′ tetramethylbenzidine (TMB) and hydrogen peroxide] (Sigma Co.) was added. The plate is then incubated for 30 min, the reaction stopped by addition of 75 μL of 1 N H2SO4, and the absorbance at 450 nm was measured using a microtiter plate reader. Under these assay conditions, the amount of color in a well is inversely proportional to the initial concentration of the sample or the standard ligand.
(§3) The specificity of the 14,15-DHET ELISA was investigated using authentic DHET and a panel of eicosanoids which, based on their structure, might be anticipated to compete with 14,15-DHET for binding to antibodies against 14,15-DHET.
(§4) In a typical standard graph for 14,15-DHET, the r2 value for the fit of the data to an equation describing an inverse logarithmic relationship of free 14,15-DHET to B/Bo was usually higher than 0.96. The detection limits for 14,15- and 11,12-DHET with ELISAwere ˜1 pg.

11,12-DHET IgG = experiment: 11,12-DHET solid phase competitive ELISA, specificity; type: binding, goat; details: 11,12-DHET ELISA, authentic DHETs
Procedure: as §1, §2, §3, §4

[2] = Form-specific antibody production / specificity of anti-14,15-, 11,12-, 8,9- and 5,6-DHETs; type: binding; details: DHET coupled to KLH, goat immunized
Procedure: Synthetic 14,15-, 11,12- or 8,9-DHETs were coupled to KLH using dicyclohexylcarbodiimide (DCC) as previously described (10). The 5,6-DHET with COOH at C1 blocked by NH3 to prevent lactone formation were coupled to KLH using 1-ethyl-3-(3-dimethylaminopropyl)carbodiimide hydrochloride (EDC) according to the manufacturer's instruction (Pierce Biotechnology, Rockford, Ill).
The conjugate was used to immunize a goat and antibody titers were determined by ELISA using the DHET-conjugated bovine serum albumin (BSA).
as §3
(§5) The specificity of the antibody developed against 14,15-DHET was further investigated utilizing slot blot analysis. The 14,15-DHET conjugated BSA, BSA alone and 8,9-DHET conjugated to BSA were blotted onto cellulose membrane. Slot blot analysis was carried out with anti-14,15-DHET. […] Anti-8,9-DHET cross-reacted with both 8,9- and 14,15-DHETs.

Anti-8,9-DHET = experiment: Cross-reaction of anti-8,9-DHET; type: binding, goat
Procedure: as §5

[3] = tested on: ethanol-esterified 13-HODE IgG; experiment: Competitive ELISA with HRP conjugated with ethanol-esterified 13-HODE; type: binding, goat; details: plate coated with the IgG, various concentrations
Procedure: FIG. 6 is a graph showing a competitive ELISA carried out with various concentrations of BSA and 13-HODE ethyl ester conjugated BSA to show cross-reactivity of the antibody to the 13-HODE ethyl ester.
A competitive ELISA using a plate coated with the IgG was carried out with various concentrations of BSA conjugated with ethanol-esterified 13-HODE and HRP conjugated with ethanol-esterilied 13-HODE. A negative control for this ELISA was BSA.
ELISA was carried out with serially diluted BSA or ethyl ester of 13-HODE-conjugated BSA and ˜50 ng/100 μl of the ethyl ester of 13-HODE HRP conjugates as described in Example 1.

Row | Compound | cross-reaction with anti-14,15-DHET [1] | further results
1 | CCCCC[C@H](O)/C=C/C=C\C/C=C\C=C\[C@@H](O)CCCC(=O)O [5(s)15(S)DiHETE] | did not cross-react | –
2 | CCCCC/C=C\C/C=C\C/C=C\CC(O)C(O)CCCC(=O)O (stereo not shown) [5,6-DHET] | did not cross-react | cross-reaction with 11,12-DHET IgG (11,12-DHET IgG): didn't cross-react; form-specific antibody production [2]: failed
3 | CCCCC/C=C\C/C=C\C/C=C\CC1OC1CCCC(=O)O (stereo not shown) [5,6-EET] | did not cross-react | –
4 | CCCCC[C@H](O)/C=C/[C@@H]1[C@@H](CC(=O)CCCCC(=O)O)[C@@H](O)C[C@H]1O [6-keto-PGF1a] | did not cross-react | –
5 | CCCCC/C=C\C/C=C\CC(O)C(O)C/C=C\CCCC(=O)O (stereo not shown) [8,9-DHET] | minimal cross-reaction | cross-reaction with 11,12-DHET IgG (11,12-DHET IgG): minimal cross-reaction; cross-reaction with anti-8,9-DHET (Anti-8,9-DHET): cross-reacted; form-specific antibody production [2]: failed
6 | CCCCC/C=C\C/C=C\CC1OC1C/C=C\CCCC(=O)O (stereo not shown) [8,9-EET] | did not cross-react | –
7 | CCCCC/C=C\CC(O)C(O)C/C=C\C/C=C\CCCC(=O)O (stereo not shown) [11,12-DHET] | minimal cross-reaction | form-specific antibody production [2]: successful
8 | CCCCC/C=C\C[C@H]1O[C@H]1C/C=C\C/C=C\CCCC(=O)O [11,12-EET] | did not cross-react | –
9 | CCCCCC(O)C(O)C/C=C\C/C=C\C/C=C\CCCC(=O)O (stereo not shown) [14,15-DHET] | – | cross-reaction with 11,12-DHET IgG (11,12-DHET IgG): minimal cross-reaction; cross-reaction with anti-8,9-DHET (Anti-8,9-DHET): cross-reacted; form-specific antibody production [2]: successful
10 | CCCCCC1OC1C/C=C\C/C=C\C/C=C\CCCC(=O)O (stereo not shown) [14,15-EET] | did not cross-react | –
11 | CCCCC[C@H](O)/C=C/C=C\C/C=C\C/C=C\CCCC(=O)O [15(S)HETE] | did not cross-react | –
12 | CCCCC/C=C\C/C=C\CCCCCCCC(=O)OCC [Ethanol-esterified linoleic acid, linoleic acid ethyl ester] | – | competition with ethanol-esterified 13-HODE-HRP conjugate for binding to the IgG [3]: competed with the HRP conjugated with ethanol-esterified 13-HODE in a dose-dependent manner
13 | CCCCC[C@H](O)/C=C/[C@H]1[C@H](O)CC(=O)[C@@H]1C/C=C\CCCC(=O)O [PGE2] | did not cross-react | –
14 | CCCCC[C@H](O)/C=C/[C@@H]1[C@@H](C/C=C\CCCC(=O)O)[C@@H](O)C[C@H]1O [PGF2a] | did not cross-react | –
15 | CCCCC[C@H](O)/C=C/[C@H]1OC(O)C[C@H](O)[C@@H]1C/C=C\CCCC(=O)O (stereo partly shown) [Thromboxane B2] | did not cross-react | –
16 | CCCCC/C=C\C/C=C\C/C=C\C/C=C\CCCC(=O)O [arachidonic acid] | did not cross-react | –
17 | CCO [ethanol] | – | competition with ethanol-esterified 13-HODE-HRP conjugate for binding to the IgG [3]: competed with the HRP conjugated with ethanol-esterified 13-HODE in a dose-dependent manner
